Data: US4443478A, “Prostaglandin analogues” (Ono Pharmaceutical Co., Ltd., priority 1981, dated 1984)
Converted amounts (≈) assume the structure as drawn.

Experiments:
stress ulceration = test: inhibition of stress ulceration in rats; format: in vivo; details: rat, oral
Source text: For example, in standard laboratory tests, (i) in stress ulceration of rats [produced according to the methods of Takagi and Okabe, Jap.

[1] = tested on: carbon tetrachloride-induced liver damage; test: carbon tetrachloride-induced liver damage in rats; format: in vivo; details: rat, in comparison with controls
[2] = tested on: α-naphthylisothiocyanate-induced liver damage; test: α-naphthylisothiocyanate-induced liver damage in rats; format: in vivo; details: rat, oral, 100 μg/kg, in comparison with controls
blood pressure = test: fall in blood pressure in the allobarbital-anaesthetized dog; format: in vivo; details: intravenous
uterine contraction = test: stimulation of uterine contraction in the pregnant female rat; format: in vivo; details: 20th day of gestation, intravenous
male mice = test: acute toxicity by oral administration; format: in vivo, mouse
Procedure: On the other hand, the compounds of the present invention were confirmed that their toxicities (i.e. LD50) were more than […] animal body weight by oral administration. Therefore, the compounds of the present invention may be considered to be sufficiently safe and suitable for medical use.

[3] = tested on: D(+)-galactoseamine-induced liver damage; test: D(+)-galactoseamine-induced liver damage in rats; format: in vivo; details: rat, oral, 100 μg/kg, in comparison with control
[4] = tested on: adenosine diphosphate-induced blood platelet aggregation; test: inhibition of adenosine diphosphate-induced blood platelet aggregation in platelet-rich plasma; format: cell-based; details: Homo sapiens; platelet-rich plasma of humans; read-out: concentration producing 50% inhibition of adenosine diphosphate-induced blood platelet aggregation

Row | SMILES | inhibition of plasma GOT (glutamic oxalacetic transaminase) ([1]; oral, 50 μg/kg) | inhibition of plasma GPT (glutamic pyruvic transaminase) ([1]; oral, 50 μg/kg) | inhibition of plasma GOT [2] | inhibition of plasma GPT [2] | inhibition of plasma bilirubin [2] | duration of fall in blood pressure (blood pressure; 0.5 μg/kg) | fall in blood pressure (blood pressure; 0.5 μg/kg) | stimulation of uterine contraction (uterine contraction; 20 μg/kg) | deaths in acute toxicity test (male mice; 5 mg/kg) | deaths in acute toxicity test (male mice; 10 mg/kg) | IC50 [4] | further results
1 | CCCC[C@H](C)C[C@H](O)/C=C/[C@H]1[C@H](O)CC(=O)[C@@H]1CC(=O)CCCCC(=O)CO (relative stereo) [1-Hydroxymethyl-11α,15(S)-dihydroxy-17(S),20-dimethylprost-trans-13-ene-1,6,9-trione] | 58.0% | 59.7% | 49.0% | 53.7% | 21.2% | 29 min | 15 mm Hg | stimulated uterine contraction | no deaths in 10 cases | no deaths in 10 cases | – | inhibition of stress ulceration (stress ulceration; 20 μg/kg): 56.8%; inhibition of stress ulceration (stress ulceration; 50 μg/kg): 91.8%; inhibition of plasma GOT (glutamic oxalacetic transaminase) ([1]; subcutaneous, 20 μg/kg): 61.4%; inhibition of plasma GPT (glutamic pyruvic transaminase) ([1]; subcutaneous, 20 μg/kg): 48.7%; duration of fall in blood pressure (blood pressure; 0.3 μg/kg): 14 min; fall in blood pressure (blood pressure; 0.3 μg/kg): 6 mm Hg
2 | CCCC1CC([C@H](O)/C=C/[C@H]2[C@H](O)CC(=O)[C@@H]2CC(=O)CCCCC(=O)CO)C1 (relative stereo) [1-hydroxymethyl-11α,15(S)-dihydroxy-15-(3-propylcyclobutyl)-16,17,18,19,20-pentanorprost-trans-13-ene-1,6,9-trione] | – | – | 53.1% | 61.3% | 30.3% | – | – | – | – | – | – | –
3 | CCCCC1CCC([C@H](O)/C=C/[C@H]2[C@H](O)CC(=O)[C@@H]2CC(=O)CCCCC(=O)CO)C1 (stereo partly drawn) [1-Hydroxymethyl-11α,15(S)-dihydroxy-15-(3-butylcyclopentyl)-16,17,18,19,20-pentanorprost-trans-13-ene-1,6,9-trione] | 54.9% | 48.6% | 30.3% | 41.7% | 15.2% | 17 min | 20 mm Hg | stimulated uterine contraction | – | 2 deaths in 5 cases | 0.0036 to 0.072 µg/mL (≈ 0.00825 to 0.165 µM) | inhibition of plasma GOT [3]: 57.0%; inhibition of plasma GPT [3]: 54.0%; inhibition of plasma bilirubin [3]: 63.0%; duration of fall in blood pressure (blood pressure; 1.0 μg/kg): 40 min; fall in blood pressure (blood pressure; 1.0 μg/kg): 47 mm Hg; stimulation of uterine contraction (uterine contraction; 50 μg/kg): stimulated uterine contraction
4 | CCCC1CCC([C@H](O)/C=C/[C@H]2[C@H](O)CC(=O)[C@@H]2CC(=O)CCCCC(=O)CO)C1 (stereo partly drawn) [1-Hydroxymethyl-11α,15(S)-dihydroxy-15-(3-propylcyclopentyl)-16,17,18,19,20-pentanorprost-trans-13-ene-1,6,9-trione] | 46.7% | 45.1% | – | – | – | – | – | – | one death in 5 cases | – | 0.0018 to 0.018 µg/mL (≈ 0.00426 to 0.0426 µM) | duration of fall in blood pressure (blood pressure; 0.1 μg/kg): 9 min; fall in blood pressure (blood pressure; 0.1 μg/kg): 20 mm Hg; duration of fall in blood pressure (blood pressure; 0.2 μg/kg): 23 min; fall in blood pressure (blood pressure; 0.2 μg/kg): 35 mm Hg
